Measured values as given in ChEMBL document CHEMBL1201862, “PubChem BioAssay data set” (2004).
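Briefly, cells in 96-well plates were exposed to five compound concentrations for 48 h, and endpoints were estimated by linear interpolation. At the GI50, growth is halved.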 The source made the active and inactive calls. Cut-off read from the data, not from the text of the source: active = GI50 up to about 1.1 µM and inactive = higher.

Experiments:
Experiment in all cases: NCI anticancer screen, dose series, 48 h
SF-268 = test system: SF-268
HCT-15 = test system: HCT-15
SW-620 = test system: SW-620
SK-MEL-2 = test system: SK-MEL-2
OVCAR-5 = test system: OVCAR-5
NCI-H226 = test system: NCI-H226
A498 = test system: A498
M14 = test system: M14
TK-10 = test system: TK-10
SF-539 = test system: SF-539
SNB-19 = test system: SNB-19
SR = test system: SR
786-0 = test system: 786-0
HOP-92 = test system: HOP-92
HL-60 = test system: HL-60
SK-OV-3 = test system: SK-OV-3
PC-3 = test system: PC-3
UO-31 = test system: UO-31
RXF 393 = test system: RXF 393
SK-MEL-5 = test system: SK-MEL-5

SMILES | GI50 (SF-268) | GI50 (HCT-15) | GI50 (SW-620) | GI50 (SK-MEL-2) | GI50 (OVCAR-5) | GI50 (NCI-H226) | GI50 (A498) | GI50 (M14) | GI50 (TK-10) | GI50 (SF-539) | GI50 (SNB-19) | GI50 (SR) | GI50 (786-0) | GI50 (HOP-92) | GI50 (HL-60) | GI50 (SK-OV-3) | GI50 (PC-3) | GI50 (UO-31) | GI50 (RXF 393) | GI50 (SK-MEL-5)
O=C1NC(=O)C(Cc2ccccc2)(c2cccnc2)N1 (centres undefined) | > 100 µM (inactive) | > 100 µM | > 100 µM (inactive) | > 100 µM (inactive) | > 100 µM (inactive) | > 100 µM (inactive) | > 100 µM (inactive) | > 100 µM (inactive) | > 100 µM (inactive) | > 100 µM (inactive) | > 100 µM (inactive) | > 100 µM (inactive) | > 100 µM (inactive) | > 100 µM (inactive) | > 100 µM (inactive) | > 100 µM (inactive) | > 100 µM (inactive) | > 100 µM (inactive) | > 100 µM (inactive) | > 100 µM (inactive)
CCN(Cc1cc(Cl)cc(C)c1O)Cc1c(O)ccc2ccccc12 | 18.2 µM (inactive) | 14.6 µM | 25.4 µM (inactive) | 16.4 µM (inactive) | 17.6 µM (inactive) | 19.1 µM (inactive) | 18.7 µM (inactive) | 18.4 µM (inactive) | 17.1 µM (inactive) | 13.3 µM (inactive) | 18.5 µM (inactive) | 16.2 µM (inactive) | 16.8 µM (inactive) | 11.2 µM (inactive) | 12 µM (inactive) | 15.2 µM (inactive) | 15.5 µM (inactive) | 16.2 µM (inactive) | 16.4 µM (inactive) | 14.9 µM (inactive)
NS(=O)(=O)c1ccc(Nc2c3ccccc3nc3c(C(=O)NCCO)cccc23)cc1 | 0.141 µM (active) | 0.169 µM | 0.118 µM (active) | 0.186 µM (active) | 0.183 µM (active) | 0.113 µM (active) | 0.105 µM (active) | 0.182 µM (active) | 0.27 µM (active) | 0.131 µM (active) | 0.0977 µM (active) | 0.0128 µM (active) | 0.145 µM (active) | 0.148 µM (active) | 0.243 µM (active) | 0.201 µM (active) | 0.177 µM (active) | 0.181 µM (active) | 0.0857 µM (active) | 0.0853 µM (active)
C=C1CCOC2(C(O)C(C)(O)CO)NC(=O)C1(O)NC2=O (centres undefined) | > 100 µM (inactive) | > 100 µM | > 100 µM (inactive) | > 100 µM (inactive) | > 100 µM (inactive) | > 100 µM (inactive) | > 100 µM (inactive) | > 100 µM (inactive) | > 100 µM (inactive) | > 100 µM (inactive) | > 100 µM (inactive) | > 100 µM (inactive) | > 100 µM (inactive) | > 100 µM (inactive) | > 100 µM (inactive) | > 100 µM (inactive) | > 100 µM (inactive) | > 100 µM (inactive) | > 100 µM (inactive) | > 100 µM (inactive)
COc1ccc(/C=C2\CN(C)CC3C2=NC(=S)NC3c2ccc(OC)cc2)cc1 (centres undefined) | 5.64 µM (inactive) | 3.46 µM | 6.05 µM (inactive) | 13.9 µM (inactive) | 19.3 µM (inactive) | 41.5 µM (inactive) | 3.27 µM (inactive) | 2.77 µM (inactive) | 27.2 µM (inactive) | 7.11 µM (inactive) | 5.66 µM (inactive) | 0.865 µM (active) | 3.66 µM (inactive) | 3.21 µM (inactive) | 2.19 µM (inactive) | 5.66 µM (inactive) | 6.21 µM (inactive) | 4.95 µM (inactive) | 2.17 µM (inactive) | 4.24 µM (inactive)
CCOC(=O)CSc1nnc(C(Sc2nc(-c3ccccc3)c(-c3ccccc3)[nH]2)C(C)C)n1-c1ccccc1 (centres undefined) | 17.9 µM (inactive) | 18.1 µM | 19 µM (inactive) | 16.1 µM (inactive) | 18.9 µM (inactive) | 17.1 µM (inactive) | > 10 µM (inactive) | 14.3 µM (inactive) | 21.5 µM (inactive) | 13 µM (inactive) | 21.9 µM (inactive) | 31.2 µM (inactive) | 16 µM (inactive) | > 10 µM (inactive) | 20 µM (inactive) | > 10 µM (inactive) | 28.6 µM (inactive) | 17.4 µM (inactive) | 26.2 µM (inactive) | > 10 µM (inactive)
CCCCCCC(C)c1ccc2c(c1)C(=O)c1nc3ccncc3c(=O)n1-2 (centres undefined) | 36.2 µM (inactive) | 1.3 µM | 2.61 µM (inactive) | 3.61 µM (inactive) | 5.43 µM (inactive) | 4.16 µM (inactive) | 4.32 µM (inactive) | 2.94 µM (inactive) | 4.86 µM (inactive) | 4.44 µM (inactive) | 4.81 µM (inactive) | 0.225 µM (active) | 2.29 µM (inactive) | 78.3 µM (inactive) | 0.26 µM (active) | 5.9 µM (inactive) | 3.54 µM (inactive) | 2.17 µM (inactive) | 4.06 µM (inactive) | 1.42 µM (inactive)
COc1ccc(N2CCOCC2)cc1 | > 100 µM (inactive) | > 100 µM | > 100 µM (inactive) | > 100 µM (inactive) | > 100 µM (inactive) | > 100 µM (inactive) | > 100 µM (inactive) | > 100 µM (inactive) | > 100 µM (inactive) | > 100 µM (inactive) | > 100 µM (inactive) | > 100 µM (inactive) | > 100 µM (inactive) | > 100 µM (inactive) | > 100 µM (inactive) | > 100 µM (inactive) | > 100 µM (inactive) | > 100 µM (inactive) | > 100 µM (inactive) | > 100 µM (inactive)
O=C1/C(=C/c2ccc(O)cc2)Oc2ccccc21 | > 100 µM (inactive) | > 100 µM | > 100 µM (inactive) | > 100 µM (inactive) | > 100 µM (inactive) | > 100 µM (inactive) | > 100 µM (inactive) | > 100 µM (inactive) | > 100 µM (inactive) | > 100 µM (inactive) | > 100 µM (inactive) | 47.6 µM (inactive) | > 100 µM (inactive) | > 100 µM (inactive) | 35.6 µM (inactive) | > 100 µM (inactive) | > 100 µM (inactive) |  | > 100 µM (inactive) | > 100 µM (inactive)
c1csc(-c2nnc(C34CC5CC(CC(C5)C3)C4)o2)c1 | 46.5 µM (inactive) | 38.1 µM | 45.8 µM (inactive) | 24.5 µM (inactive) | 32.4 µM (inactive) | 29.9 µM (inactive) | 16.9 µM (inactive) | 37.2 µM (inactive) | 47.4 µM (inactive) | 19 µM (inactive) | 51.6 µM (inactive) | 27.7 µM (inactive) | 24.7 µM (inactive) | 29.1 µM (inactive) | 15.1 µM (inactive) | 53.1 µM (inactive) | 28 µM (inactive) | 3.96 µM (inactive) | 23.3 µM (inactive) | 17.1 µM (inactive)
OC1CCCCCCCCCCC1[S+]1CCCC1.O[B-](F)(F)F (centres undefined) | > 100 µM (inactive) | > 100 µM | > 100 µM (inactive) | > 100 µM (inactive) | > 100 µM (inactive) | 50.9 µM (inactive) | > 100 µM (inactive) | > 100 µM (inactive) | > 100 µM (inactive) | > 100 µM (inactive) | > 100 µM (inactive) | > 100 µM (inactive) | > 100 µM (inactive) | 44.1 µM (inactive) | > 100 µM (inactive) | > 100 µM (inactive) | 56.8 µM (inactive) | > 100 µM (inactive) | > 100 µM (inactive) | 27.7 µM (inactive)
